# Measured values taken from patent US5663335A, “Immunosuppressive compounds and methods” (priority 1996, dated 1997).
# Entries after “also recorded” stand apart in the source; their conditions may differ. Structures can show the parent of a compound that is named as a salt.
# Assays:
# [1] = Stability in blood serum (TLC); format: in vitro ADME; conditions: rat serum, 37° C; for stability in serum, 3 to 5 minutes: first 3 to 5 minutes
# Protocol: The stability of triptolide succinate in blood serum was determined as detailed in Example 10B. In this study, a solution of triptolide succinate (YM-262, free acid) in DMSO was mixed with rat serum and incubated at 37° C. The mixture was assayed periodically by thin layer chromatography (TLC) to follow the hydrolysis of the triptolide succinate over time.
# A solution of triptolide succinate (free acid; YM-262) in DMSO was made at a concentration of 25 mg/ml, and 0.1 ml of this solution was mixed with 0.5 ml of rat serum. The mixture was incubated at 37° C. Aliquots of the mixture were taken at 1, 3, 5, 15, 45 minutes and 18 hours and analyzed by thin layer chromatography (TLC). The TLC plates were developed in 1:5 CH2 CI2 /Et2 O. After development, the plates were treated with iodine vapor and examined under a UV lamp. Triptolide and triptolide succinate were used as reference compounds (Rf =0.60), and 0.45, respectively).
# [2] = Cytotoxicity by MTT assay, reported with the IL-1 assay (Table I); format: cell-based; conditions: mouse, thymocytes, cytotoxic when toxicity greater than 25%
# Protocol: Potential cytotoxicity of the test samples was assessed by the measurement of their effect on the reduction of MTT (3-[4,5-Dimethylthiazole-2-yl]-2,5-diphenyltetrazolium bromide) by cultured cells. MTT, a yellow-colored compound, is reduced by mitochondrial enzymes to form the purple crystalline reduction product formazane, providing an index of cellular respiration on viable cells as well as a sensitive assay for cytotoxicity (Mossmann, 1983).
# The cytotoxicity was assessed in cultured human PBMC and mouse thymocytes. A stock solution of MTT (Sigma) at 5 mg/ml in phosphate buffered saline, pH 7.4, was prepared and stored in the dark at 4° C. PBMCs or thymocytes were cultured with various concentrations of test samples in flatbottom 96-well tissue culture plates (Costar) under the same conditions as those described above, but the stimulants (X-35 or IL-1+PHA) were replaced by appropriate medium. Untreated cells with medium alone and without the test samples were used as controls. After incubation for 21 hours, 25 μl of MTT solution was added to each well. After an additional three hours of incubation, the experiment was terminated by addition of a solution of 10% sodium dodecyl sulfate in 0.01N HCl. Following overnight incubation at 37° C. to solubilize the formazane crystals, optical density was determined at 570-650 nm in microplate reader. […]
# [3] = tested on: rat heart allograft rejection (Brown Norway donor, Lewis recipient); test: Heterotopic cardiac allograft survival (heart transplantation model); format: in vivo; conditions: for mean survival time: intraperitoneal, daily, day -1 to day 14; for mean survival time compared with underivatized triptolide: equimolar doses: YM-273 0.40 mg/kg, YM-274 0.33 mg/kg, T10 0.25 mg/kg, i.p.
# Excerpt: Treatment of transplantation rejection, in accordance with the invention, is illustrated for rejection of an allograft by the heart transplantation model used in Example 14. The method involves a well-characterized rat model system (Oho and Lindsey, 1969) in which a transplanted heart is attached to the abdominal great vessels of an allogeneic recipient animal, and the viability of the transplanted heart is gauged by the heart's ability to beat in the recipient animal.
# In one study, the animals were administered by intraperitoneal injections, from one day preceding to 14 days following heart transplantation, either control solution (5% ethanol, 10 ml/kg), triptolide (designated as T10), or with two concentrations each of YM-273 and YM-274. There were three animals in each group, except for the control group in which five animals were used.
# Heterotopic whole heart transplantation was performed according to the standard method (Oho and Lindsey, 1969). The donors (Brown Norway rats, 200-255 g, Charles River, Wilmington, Mass.) and recipients (Adult male Lewis rats, 225-275 g, Charles River) were anesthetized with sodium pentobarbital (40 mg/kg). Following adequate donor anticoagulation using heparin, the heart graft was removed and stored at 4° C. in PhysioSol Irrigation Solution (Abbott Laboratories, N. Chicago, Ill.). The ascending aorta and pulmonary artery were transected, and the vena cava and pulmonary veins were ligated. […] The cold ischemic time of all the cardiac grafts was less than 45 minutes. Graft heartbeat was monitored by abdominal palpation. The period of functional graft survival was measured as the number of days during which cardiac graft contractions could be detected by abdominal palpation. Results were confirmed by direct visualization at laparotomy.
# Heart transplant recipient animals prepared as described above (3-5 animals/group) were treated with (i) control solution (5% ethanol, 10 ml/kg), (ii) YM-273 at 0.10 mg/kg and 0.40 mg/kg (FIG. 5A), (iii) YM-274 at 0.084 and 0.33 mg/kg (FIG. 5B), and (iv) and T10 (triptolide) 0.25 mg/kg (FIG. 6). In addition to showing the results for T10, FIG. 6 repeats the results from FIGS. 5A-5B for YM-273 and YM-274 at 0.40 and 0.33 mg/kg, respectively, such that their concentrations were equimolar relative to T10. All compounds were administered intraperitoneally. Treatment started on the day prior to surgery and continuing daily until postoperative day 14, or until the end of allograft survival.
# [4] = Stability in water (D2O solution, 1H NMR); format: physicochemical; conditions: 3 mg/ml, room temperature, Succinate Sodium Salt
# Protocol: Sodium triptolide succinate, designated YM-274, was dissolved in D2 O, and the aqueous solution was stored at room temperature.
# A solution of sodium triptolide succinate (YM-274) in D2 O was prepared at a concentration of 3 mg/ml and stored at room temperature. The solution was analyzed by ^1 H NMR at intervals of 1, 3, 5, 15, 45, 90, 180 minutes; 1, 7, 14 days; and 1, 2, 3, and 5 months.
smiles,measurement,setting,value
"CC(C)C12OC1C1OC13C1(C)CCC4=C(COC4=O)C1CC1OC13C2OC(=O)CCC(=O)O (stereo not drawn) [YM-262, Triptolide Succinate]",time for hydrolysis of the triptolide ester to free triptolide in serum,[1],less than an hour
same,"stability in serum, 15 minutes",[1]; 15 minutes,the triptolide succinate spot was gone
same,"stability in serum, 3 to 5 minutes",[1],most of the triptolide succinate remained
same,"stability in serum, 3 to 5 minutes",[1]; listed as triptolide succinate,only triptolide succinate was detected by TLC
same,MCC,[2],> 12.5 µg/mL
"CC(C)C12OC1C1OC13C1(C)CCC4=C(COC4=O)C1CC1OC13C2OC(=O)CCC(=O)O (stereo not drawn) [YM-273, Triptolide Succinate Tris Salt]",mean survival time,[3]; 0.1 mg/kg,7 days
same,mean survival time,[3]; 0.4 mg/kg,24 days
same,mean survival time compared with underivatized triptolide,[3],somewhat better
"CC(C)C12OC1C1OC13C1(C)CCC4=C(COC4=O)C1CC1OC13C2OC(=O)CCC(=O)O (stereo not drawn) [YM-274, Triptolide Succinate Sodium Salt]","stability in D2O, five months",[4]; five months,Some decomposition was apparent after 5 months; also recorded: some decomposition was observed
same,"stability in D2O, up to three months",[4]; three months,no appreciable change in the NMR spectrum during the first three months; also recorded: unchanged after three months in solution
same,mean survival time,[3]; 0.0837 mg/kg,10 days
same,mean survival time compared with underivatized triptolide,[3]; Succinate Sodium Salt,substantially better
